Assay results: patent US8383652B2, “Biaromatic compounds that modulate PPAR-receptors” (Galderma Research & Development, priority 2005, dated 2013)
Structures can show the parent of a compound that is named as a salt.

Columns and labels:
PPARα = target: T1, PPARα (Homo sapiens, UniProt Q07869); assay: Cross-curve PPAR transactivation test, PPARα; assay type: cell-based; details: HeLN cells stably transfected with Gal-hPPAR and luciferase reporter; cross curves against reference agonist, Schild regression; n.a means not active; read-out: PPAR alpha Kd app
T1 construct: The reporter is ERE-βGlob-Luc-SV-Neo
T1 sequence (Q07869 200-468 limits assumed): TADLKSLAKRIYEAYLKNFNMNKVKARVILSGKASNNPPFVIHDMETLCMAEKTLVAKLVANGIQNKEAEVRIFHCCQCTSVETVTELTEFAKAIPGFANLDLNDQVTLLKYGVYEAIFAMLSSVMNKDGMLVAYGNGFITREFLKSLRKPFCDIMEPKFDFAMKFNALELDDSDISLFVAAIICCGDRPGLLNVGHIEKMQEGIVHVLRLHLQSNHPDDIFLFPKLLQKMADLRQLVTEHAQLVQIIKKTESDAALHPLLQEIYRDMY
Experimental: (§1) The activation of the receptors with an agonist (activator) in HeLN cells leads to the expression of a reporter gene, luciferase, which, in the presence of a substrate, generates light. The modulation of the receptors is measured by quantifying the luminescence produced after incubating the cells in the presence of a reference agonist. The ligands displace the agonist from its site. The measurement of the activity is performed by quantifying the light produced. This measurement makes it possible to determine the modulatory activity of the compounds according to the invention by determining the constant that is the affinity of the molecule for the receptor. Since this value can fluctuate depending on the basal activity and the expression of the receptor, it is referred to as Kd apparent (KdApp in nM).
(§2) To determine this constant, “cross curves” of the test product against a reference agonist are produced in a 96-well plate: 10 concentrations of the test product plus a concentration 0 are arranged in a line, and 7 concentrations of the agonist plus a concentration 0 are arranged in a column. This is 88 measurement points for 1 product and 1 receptor. The remaining 8 wells are used for repeatability controls.
(§3) Measurements are also taken for total agonist controls with the same products.
(§4) The HeLN cell lines used are stable transfectants containing the plasmids ERE-βGlob-Luc-SV-Neo (reporter gene) and PPAR (α, δ, γ) Gal-hPPAR. These cells are inoculated into 96-well plates at a rate of 10-000 cells per well in 100 μL of DMEM medium without phenol red and supplemented with 10% of defatted calf serum. The plates are then incubated at 37° C. and 7% CO2 for 16 hours. The various dilutions of the test products and of the reference ligand are added at a rate of 5 μL per well. The plates are then incubated for 18 hours at 37° C. and 7% CO2.
(§5) The culture medium is removed by turning over and 100 μL of a 1:1 PBS/luciferin mixture are added to each well. After 5 minutes, the plates are read by the luminescence detector.

PPARγ = target: T2, PPARγ (Homo sapiens, UniProt P37231); assay: Cross-curve PPAR transactivation test, PPARγ; assay type: cell-based; details: HeLN cells stably transfected with Gal-hPPAR and luciferase reporter; cross curves against reference agonist, Schild regression; n.a means not active; read-out: PPAR gamma Kd app
T2 construct: The reporter is ERE-βGlob-Luc-SV-Neo
T2 sequence (P37231 238-505 limits assumed): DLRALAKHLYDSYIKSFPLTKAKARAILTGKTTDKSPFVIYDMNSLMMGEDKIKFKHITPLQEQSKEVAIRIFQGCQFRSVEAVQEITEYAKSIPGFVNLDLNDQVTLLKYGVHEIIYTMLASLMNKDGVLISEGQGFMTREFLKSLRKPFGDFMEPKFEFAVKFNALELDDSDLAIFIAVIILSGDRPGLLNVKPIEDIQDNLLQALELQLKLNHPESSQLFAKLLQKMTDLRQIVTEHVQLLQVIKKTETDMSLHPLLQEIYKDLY
Experimental: as §1, §2, §3, §4, §5

PPARδ = target: T3, PPARδ (Homo sapiens, UniProt Q03181); assay: Cross-curve PPAR transactivation test, PPARδ; assay type: cell-based; details: HeLN cells stably transfected with Gal-hPPAR and luciferase reporter; cross curves against reference agonist, Schild regression; n.a means not active; read-out: PPARs delta Kd app
T3 construct: The reporter is ERE-βGlob-Luc-SV-Neo
T3 sequence (Q03181 211-441 limits assumed): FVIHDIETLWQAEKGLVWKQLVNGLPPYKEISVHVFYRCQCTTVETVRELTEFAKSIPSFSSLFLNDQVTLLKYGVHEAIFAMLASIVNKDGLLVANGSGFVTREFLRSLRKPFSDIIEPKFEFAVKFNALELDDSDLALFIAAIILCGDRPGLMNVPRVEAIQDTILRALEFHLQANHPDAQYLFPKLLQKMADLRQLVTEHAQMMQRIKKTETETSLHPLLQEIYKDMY
Experimental: as §1, §2, §3, §4, §5

SMILES | Kd (PPARα) | Kd (PPARγ) | Kd (PPARδ) | melting point
CCCCCCCC(=O)N(C)Cc1cccc(-c2ccc(/C=C(\OCC)C(=O)O)cc2)c1 [Compound 1, (Z)-2-ethoxy-3-{3′-[(methyloctanoylamino)methyl]biphenyl-4-yl}acrylic acid] | 2000 nM | 30 nM |  | 
CCCCCCCNC(=O)N(C)c1cccc(-c2ccc(/C=C(\OCC)C(=O)O)cc2)n1 [Compound 2, (Z)-2-ethoxy-3-{4-[6-(3-heptyl-1-methylureido)pyrid-2-yl]phenyl}acrylic acid] | 1000 nM | 30 nM |  | 
CCCCCNC(=O)N(C)c1cccc(-c2ccc(/C=C(\OCC)C(=O)O)cc2)n1 [Compound 3, (Z)-2-ethoxy-3-{4-[6-(1-methyl-3-pentylureido)pyrid-2-yl]phenyl}acrylic acid] |  | 30 nM |  | 162 °C
CCCCCCCNC(=O)N(C)c1cccc(-c2ccc(/C=C(\F)C(=O)O)cc2)c1 [Compound 6, (Z)-2-fluoro-3-[3′-(3-heptyl-1-methylureido)biphenyl-4-yl]acrylic acid] |  | 60 nM |  | 
CCCCCNC(=O)N(C)c1cccc(-c2ccc(/C=C(\CC)C(=O)O)cc2)c1 [Compound 9, 2-[1-[3′-(1-methyl-3-pentylureido)biphenyl-4-yl]meth-(E)-ylidene]butyric acid] | 2000 nM | 4 nM | 2000 nM | 
CCO/C(=C\c1ccc(-c2cccc(N(C)C(=O)NCCc3ccccc3)c2)cc1)C(=O)O [Compound 10, (Z)-2-ethoxy-3-[3′-(1-methyl-3-phenethylureido)biphenyl-4-yl]acrylic acid] |  | 4 nM |  | 
CCCCNC(=O)N(C)c1cccc(-c2ccc(/C=C(\OC)C(=O)O)cc2)c1 [Compound 11, (Z)-3-[3′-(3-butyl-1-methylureido)biphenyl-4-yl]-2-methoxyacrylic acid] |  | 4 nM |  | 
CCCCCNC(=O)N(C)c1cccc(-c2ccc(/C=C(\OC)C(=O)O)cc2)c1 [Compound 13, (Z)-2-Methoxy-3-[3′-(1-methyl-3-pentylureido)biphenyl-4-yl]acrylic acid] |  | 8 nM | 4000 nM | 
COC(=O)/C(=C/c1ccc(-c2cccc(N(C)C(=O)NC3CCCCC3)c2)cc1)OC [Compound 14, Methyl (Z)-3-[3′-(3-cyclohexyl-1-methylureido)biphenyl-4-yl]-2-methoxyacrylate] |  | 60 nM | 4000 nM | 
CO/C(=C\c1ccc(-c2cccc(N(C)C(=O)NC3CCCCC3)c2)cc1)C(=O)O [Compound 15, (Z)-3-[3′-(3-cyclohexyl-1-methylureido)biphenyl-4-yl]-2-methoxyacrylic acid] |  | 8 nM |  | 
CO/C(=C\c1ccc(-c2cccc(N(C)C(=O)NCCc3ccccc3)c2)cc1)C(=O)O [Compound 16, (Z)-2-methoxy-3-[3′-(1-methyl-3-phenethylureido)biphenyl-4-yl]acrylic acid] |  | 8 nM |  | 
CCCCOc1cc(/C=C(\C)C(=O)O)ccc1-c1cccc(CN(C)C(=O)c2cccc(OC)c2)c1 [Compound 21, (E)-3-(2-butoxy-3′-{[(3-methoxybenzoyl)methylamino]methyl}biphenyl-4-yl)-2-methylacrylic acid] |  | 30 nM |  | 
CCCCOc1cc(/C=C(\CC)C(=O)O)ccc1-c1cccc(CN(C)C(=O)c2ccccc2)c1 [Compound 22, 2-[1-{3′-[(benzoylmethylamino)methyl]-2-butoxybiphenyl-4-yl}meth-(E)-ylidene]butyric acid] |  | 120 nM |  | 
CCCCCNC(=O)N(C)c1cccc(-c2ccc(/C=C(\OC)C(=O)O)cc2OCCCC)c1 [Compound 24, (Z)-3-[2-butoxy-3′-(1-methyl-3-pentylureido)biphenyl-4-yl]-2-methoxyacrylic acid] |  |  |  | 61 °C

Continued, in another order:

Kd (PPARα) | Kd (PPARγ) | Kd (PPARδ) | SMILES | melting point
 | 4 nM |  | CCCCCCCNC(=O)N(C)c1cccc(-c2ccc(/C=C(\OCC)C(=O)O)cn2)c1 [Compound 4, (Z)-2-ethoxy-3-{6-[3-(3-heptyl-1-methylureido)phenyl]pyrid-3-yl}acrylic acid hydrochloride] | 
 | 2 nM |  | CCCCCCCNC(=O)N(C)c1cccc(-c2ccc(/C=C(\C)C(=O)O)cc2)c1 [Compound 5, (E)-3-[3′-(3-heptyl-1-methylureido)biphenyl-4-yl]-2-methylacrylic acid] | 
 | 4 nM |  | CCCCCCCNC(=O)N(C)c1cccc(-c2ccc(/C=C(\CC)C(=O)O)cc2)c1 [Compound 7, 2-[1-[3′-(3-heptyl-1-methylureido)biphenyl-4-yl]meth-(E)-ylidene]butyric acid] | 
500 nM | 4 nM | 2000 nM | CCCCCNC(=O)N(C)c1cccc(-c2ccc(/C=C(\CCC)C(=O)O)cc2)c1 [Compound 8, 2-[1-[3′-(1-methyl-3-pentylureido)biphenyl-4-yl]meth-(E)-ylidene]pentanoic acid] | 
 | 2 nM |  | CCCCCCCNC(=O)N(C)c1cccc(-c2ccc(/C=C(\C)C(=O)O)cc2OCCC)c1 [Compound 31, (E)-3-[3′-(3-heptyl-1-methylureido)-2-propoxybiphenyl-4-yl]-2-methylacrylic acid] | 
4000 nM | 1 nM |  | CCCCCCCNC(=O)N(C)c1cccc(-c2ccc(/C=C(\C)C(=O)O)cc2OCC)c1 [Compound 32, (E)-3-[2-ethoxy-3′-(3-heptyl-1-methylureido)biphenyl-4-yl]-2-methylacrylic acid] | 
